Values after ≈ are worked out from the molar mass of the structure shown. “Also recorded” adds a separate entry of the source.
Tests used:
[1] = Compatibility of nanocrystalline silver with excipients; format: physicochemical; settings: 10% aqueous solution of excipient with nanocrystalline silver, glass vial, 40° C. overnight
Enterobacter cloacae = assay: MIC assay (microdilution); format: cell-based; settings: Ent. cloacae
Escherichia coli = assay: MIC assay (microdilution); format: cell-based
DNBS-induced colitis [2] = assay: DNBS-induced colitis in rat: total IBD score; format: in vivo
Protocol: Sulfasalazine (Sigma Chemicals, St Louis, Mo.), at a concentration of 120 mg/ml for intracolonic treatment and 30 mg/ml for oral treatment was used as the reference drug in all the experiments. Sulfasalazine was first dissolved in 0.1M NaOH at a concentration about 30-fold higher than the required final concentration, and then suspended in 1.5% PVA for oral dosing and 5.7% PVA for intracolonic dosing.
One group was not treated and served as no treatment group. Treatment began one day after administration of DNBS.
Macroscopic Observations: Body weight was recorded daily and the animals were examined for their physical appearance. After five days of treatment, animals were sacrificed. The colon was excised between the ileocecal junction and rectum, and opened longitudinally. After scoring of the consistency of the stool the colon was rinsed in normal saline, examined and thickness of the colonic wall and number and size of ulcers were scored. Stool consistency was graded on a scale of 0-3: 0=normal stool, well formed pellets rigid as normal; 1=loose stool, formed pellet with moisture, soft stool keeping in stool shape; 2=loose stool, stools that have abnormal form with much moisture, softer shapeless stool; 3=watery or bloody diarrhea.
Thickness of colonic wall was graded on a scale of 0-4: 0=normal, no thickness; 1=mild thickness in lower portion of the colon; 2=moderate thickness in localized area; 3=moderate thickness extending to the central portion of the colon; 4=severe thickness in the whole colon. Colonic ulceration was graded on a scale of 0-10: 0=no ulcers; 1=one small ulcer less than 2-3 mm; 2=one large ulcer more than 2-3 mm; 3=two large ulcerations more than 2-3 mm in diameter; 4=two or more sites of ulcerations extending 1 cm along the length; 5-10=when an area of ulceration extended more than 1 cm along the length of the colon, the score increases by 1 for each additional cm of involvement. The total IBD score, obtained by the sum of the scores of colonic ulcer, colon thickness and stool consistency for each animal, was calculated for each treatment group.
Statistical Analysis: The results are expressed as the mean ±SE. The statistical significance in the mean total IBD score, histopathological inflammation score, and the immunohistochemical staining of cytokines or MMP-9 was determined using Tukey-Kramer's multiple comparison tests following one-way analysis of variance (ANOVA). The data were calculated with the aid of Instat Graph Pad Software. Differences with a P value less than 0.05 were considered significant.
Methods: Colitis was induced in rats using DNBS as described in Example 25. Animals were treated intracolonically (250 μl of the test reagents) once a day for five days. […] Methods: Colitis was induced in rats using DNBS as described in Example 25. Animals were treated intracolonically (250 μl of the test reagents) once a day for five days.

[3] = DNBS-induced colitis in rat: body weight change; format: in vivo; settings: rats with DNBS-induced colitis (FIGS. 10, 11)
Source text: Animals: Male Sprague-Dawley rats, weighing approximately 250-300 gm were purchased from Charles River Laboratories (Raleigh, N.C.). The animals were housed under standard conditions with free access to food and water. They were acclimatized for 2-3 days before commencing the experiments. The study protocol was approved by the Institutional Animal Care and Use Committees (IACUC).
Induction of ulcerative colitis: Colitis was produced according to published methods. Animals were anesthetized by intraperitoneal injection of 75 mg/kg of ketamine plus 5 mg/kg of xylazine. A single intracolonic injection of 120 mg/ml of dinitrobenzenesulfonic acid (DNBS) (Sigma Chemicals, St. Louis, Mo.) in 250 micro liter of 50% ethanol was administered through a Tom Cat catheter (Kendall Sovereign, Mansfield, Mass.) with a closed-end tip, connected to a 1 ml syringe and placed 7 cm proximal to the anus. Lubricant was applied to the tip of the catheter before injection, to protect from mucosal injury. After instillation of DNBS, 0.5 ml of air was insufflated and the catheter was removed. […]
Macroscopic Observations: Body weight was recorded daily and the animals were examined for their physical appearance. […] After scoring of the consistency of the stool the colon was rinsed in normal saline, examined and thickness of the colonic wall and number and size of ulcers were scored. […]

DNBS-induced colitis [4] = assay: DNBS-induced colitis in rat: histopathological inflammation score of colon; format: in vivo; settings: oral, 100 mg/kg, five days
Protocol: Histopathology: A piece of colonic tissue at 2-4 cm proximal to the anus was excised and fixed in 10% formalin and the sections were stained with hematoxylin and eosin. The remaining length of the colonic tissues was stored at −80° C. for subsequent biochemical assays. The histology slides were examined by a veterinary pathologist who was blinded to the treatment groups. The extent of microscopic mucosal damage of the colon was scored on scale of 0-5 as described with slight modification: 0=normal histological appearance; 1=histological damage limited to surface epithelium, mild infiltration of the submucosa; 2=focal ulceration and cell disruption limited to mucosa, abnormal appearance of colonic wall, mild infiltration of inflammatory cells; 3=focal, transmural inflammation and ulceration, with mild to moderate infiltration of inflammatory cells; 4=Extensive transmural ulceration and inflammation bordered by areas of normal mucosa, moderate infiltration of inflammatory cells; 5=extensive transmural ulceration and inflammation involving entire section from epithelium to serosa, severe infiltration of inflammatory cells.
Statistical Analysis: The results are expressed as the mean ±SE. […] The data were calculated with the aid of Instat Graph Pad Software. […]

IL-1β = assay: Immunohistochemical staining of colonic tissue; format: in vivo, rat; settings: DNBS colitis, five days oral treatment
Protocol: (§1) Immunohistochemistry: A Universal Streptavidin/Biotin detection system (Thermo Shandon, Pittsburgh, Pa.) was used for immunohistochemical staining of formalin fixed, paraffin embedded biopsies of the colon. After dewaxing, and hydration, sections were treated with protein blocking agent to reduce non-specific binding of antibodies. The tissues were then incubated with rabbit anti-rat TNF-α, or mouse anti-rat IL-12 p70 antibodies (Biosource International, Inc, Camarillo, Calif.); rabbit anti-rat IL-1β (Serotec, Raleigh, N.C.) or rabbit anti-rat MMP-9 antibody (Chemicon International, Telecuma, Calif.) in 1% bovine serum albumin in phosphate buffered saline. Incubations with secondary antibodies, streptavidin/biotin, and chromogenic detection of peroxidase were performed according to the manufacturer's protocol. Sections were counterstained, dehydrated, mounted and examined. The intensity of the immuno-peroxidase staining was graded as described previously. Expression of cytokines was graded as: 0, no staining in the section; 1, less than 25% of the section; 2, 25-50% of the section; 3, 50-75% of the section; 4, >75% of the section with significant staining.

MMP-9 [5] = assay: Immunohistochemical staining of colonic tissue; format: in vivo, rat; settings: vs placebo and no treatment (FIG. 19)
Protocol: as §1

TNF-α = assay: Immunohistochemical staining of colonic tissue; format: in vivo, rat; settings: DNBS colitis, five days oral treatment
Protocol: as §1

MMP-9 [6] = assay: Gelatin zymography of colonic homogenates; format: in vivo, rat; settings: oral 100 mg/kg
Protocol: Gelatin Zymography: Activities of MMP-9 and MMP-2 in colonic tissue homogenates were determined by gelatin zymography as described previously. Briefly, colonic homogenates were mixed with equal volume of zymograph sample buffer. Samples were loaded on a 10% SDS-polyacrylamide gel containing 0.1% gelatin. After electrophoresis, the SDS was removed from the gel by incubation with renaturing buffer containing 2% Triton-X-100 for 1 hour. The gel was incubated overnight in developing buffer containing 50 mM Tris-HCl, pH 7.8, 5 mM CaCl2, 0.2 M NaCl, 0.02% Brij-35. The gel was subsequently stained with Coumassie blue for 30 minutes and destained with destaining solution containing 8% acetic acid and 4% methanol. Gelatinolytic activity was determined as transparent bands against the blue background of stained gelatin. MMPs were identified by their molecular weight compared with the standards. Absence of a transparent band on the gel was evidenced as no MMP-9 or MMP-2 activity of the sample tested.

Staphylococcus aureus = assay: MIC assay (microdilution); format: cell-based; settings: lactate solutions, nanocrystalline silver = range for 12 samples
[7] = system: Staphylococcus epidermidis; assay: MIC assay (microdilution); format: cell-based; settings: S. epiderm (ATCC); lactate solutions; nanocrystalline silver = range for 12 samples
Streptococcus pyogenes = assay: MIC assay (microdilution); format: cell-based; settings: lactate solutions, nanocrystalline silver = range for 12 samples
Streptococcus pneumoniae = assay: MIC assay (microdilution); format: cell-based; settings: lactate solutions, nanocrystalline silver = range for 12 samples
Pseudomonas aeruginosa = assay: MIC assay (microdilution); format: cell-based; settings: lactate solutions, nanocrystalline silver = range for 12 samples
[8] = system: Mycobacterium tuberculosis H37Ra (ATCC 25177); format: cell-based

For OCc1ccccc1 [Benzyl alcohol], the “Reaction with nanocrystalline silver” value [1] was “Grey/slightly red”.
In the case of CCCCCCCCCCCCCCCCCCO [Cetearyl alcohol], the “Reaction with nanocrystalline silver” value [1] is reported as “Light brown/green/black”.
In the case of CCCCCCCCCCCCCCCCO [Cetyl alcohol], the “Reaction with nanocrystalline silver” value [1] is reported as “Grey color - no discoloration”.
With CCCCCCCCCCCCCCCCCC(=O)OCC(O)CO (stereo not drawn) [Glycerol monostearate] the “Reaction with nanocrystalline silver” value [1] was “Brown discoloration”.
In the case of CCCCCCCCCCCCCC(=O)OC(C)C [Isopropyl myristate], the “Reaction with nanocrystalline silver” value [1] is reported as “Grey color - no discoloration”.
For COC(=O)c1ccc(O)cc1 [Methylparaben], the “Reaction with nanocrystalline silver” value [1] was “Brown discoloration”.
In the case of CC(O)CO (stereo not drawn) [Propylene glycol], the “Reaction with nanocrystalline silver” value [1] is reported as “Discoloration”.
In the case of CCCOC(=O)c1ccc(O)cc1 [Propylparaben], the “Reaction with nanocrystalline silver” value [1] is reported as “Green discoloration”.
In the case of OO [Sample H2O2, hydrogen peroxide], the “Reaction with nanocrystalline silver” value [1] is reported as “Brown discoloration after drying”, the MIC (Enterobacter cloacae; Catalase/SOD +) is reported as >500 µg/mL and the MIC (Enterobacter cloacae; Catalase/SOD −) is reported as 63 µg/mL (≈ 1850 µM). The MIC (Escherichia coli; E. coli, Catalase/SOD +) was >500 µg/mL and the MIC (Escherichia coli; E. coli, Catalase/SOD −) was 31 µg/mL (≈ 911 µM).
For O=C([O-])c1ccccc1.[Na+] [Sodium benzoate], the “Reaction with nanocrystalline silver” value [1] was “White precipitate”.
In the case of CCCCCCCCCCCCCCCCCC(=O)O [Stearic acid], the “Reaction with nanocrystalline silver” value [1] is reported as “Grey color - no discoloration”.
With CCOCCOCCO [Transcutol, diethylene glycol monoethyl ether] the “Reaction with nanocrystalline silver” value [1] was “Grey color - no discoloration”.
In the case of O=C(O)c1cc(/N=N/c2ccc(S(=O)(=O)Nc3ccccn3)cc2)ccc1O [sulfasalazine, salicylazosulfapyridine], the “total IBD score vs placebo” value (DNBS-induced colitis [2]; intracolonic, 100 mg/kg, five days) is reported as “Significant reduction; also recorded: significantly reduced total IBD score”, the “total IBD score vs placebo” value (DNBS-induced colitis [2]; intracolonic, 100 mg/kg, five days, listed as Sulfasalazine) is reported as “significantly reduced total IBD score” and the “total IBD score” value (DNBS-induced colitis [2]; oral, 100 mg/kg, five days) is reported as “significant reduction”. For the same compound, the body weight change [3] was “started gaining body weight after one day of treatment”, the “histopathological inflammation vs placebo and untreated” value (DNBS-induced colitis [4]) was “significantly reduced” and the “expression of IL-1β (immunohistochemical staining)” value (IL-1β) was “significantly reduced the expression”. The “expression of MMP-9 (immunohistochemical staining)” value (MMP-9 [5]) was “significantly reduced the expression”, the “expression of TNF-α (immunohistochemical staining)” value (TNF-α) was “significantly reduced the expression” and the “MMP-9 activity (gelatin zymography)” value (MMP-9 [6]) was “reduced MMP-9 activity”.
In the case of Sodium parabens, the “Reaction with nanocrystalline silver” value [1] is reported as “Precipitation”.
Compound silver oxide [Ag2O] has an MIC (Staphylococcus aureus; S. aureus (ATCC)) of 3 µg/mL, an MIC (Staphylococcus aureus; S. aureus (clin.)) of 6 µg/mL and an MIC [7] of 2 µg/mL. For the same compound, the MIC (Streptococcus pyogenes; S. pyog (clin. 303)) was 2 µg/mL, the MIC (Streptococcus pyogenes; S. pyog (clin. 304)) was 3 µg/mL and the MIC (Streptococcus pneumoniae; S. pneumo (clin 314)) was 3 µg/mL. The MIC (Streptococcus pneumoniae; S. pneumo (clin 315)) was 2 µg/mL, the MIC (Pseudomonas aeruginosa; P. aerug (ATCC)) was 0.8 µg/mL and the MIC (Pseudomonas aeruginosa; P. aerug. (clin.)) was 2 µg/mL. For the same compound, the MIC (Escherichia coli; E. coli (ATCC), lactate solutions, nanocrystalline silver = range for 12 samples) was 0.8 µg/mL, the “minimum inhibitory concentration (MIC)” value [8] was 2.5 μg/ml silver and the “total IBD score vs placebo” value (DNBS-induced colitis [2]; intracolonic 250 μl once a day for five days, 0.25% homogenized) was “unable to show significant reduction”. For the same compound, the “total IBD score vs placebo” value (DNBS-induced colitis [2]; intracolonic 250 μl once a day for five days, 0.25% sonicated nanodispersion) was “but not 0.25% sonicated”, the “total IBD score vs placebo” value (DNBS-induced colitis [2]; intracolonic 250 μl once a day for five days, 0.5% homogenized) was “unable to show significant reduction” and the “total IBD score vs placebo” value (DNBS-induced colitis [2]; intracolonic 250 μl once a day for five days, 0.5% sonicated nanodispersion) was “significantly reduced the total IBD score”. For the same compound, the “total IBD score vs placebo” value (DNBS-induced colitis [2]; intracolonic 250 μl once a day for five days, 1.5% sonicated nanodispersion) was “significantly reduced the total IBD score”.

— patent US20080044491A1, “METAL-CONTAINING FORMULATIONS AND METHODS OF USE” (priority 2006, published 2008)
